Key:
[1] = 58 μg/kg intravenously, dogs; cited from earlier work
[2] = topical administration of up to 20%, human eye; cited from earlier work
HUVECs [3] = experiment: Matrigel endothelial cell capillary-tube formation assay; assay type: cell-based, human
Procedure: HUVECs were purchased from Cedarlane Laboratories (Burlington, Canada) and maintained in Endothelial Cell Basal Medium-2 (EBM-2) supplemented with EGM-2 growth factor mixture (Clonetics) and 2% Foetal bovine serum. The cells were cultured at 37° C. under a humidified 95%/5% (v/v) mixture of air and CO2.
Matrigel endothelial cell tube formation assays were performed using BD Matrigel™ (Becton, Dickinson). BD Matrigel™ was thawed at 4° C., and 150 μL were quickly added to each well of a 48-well plate and allowed to solidify for 60 min at 37° C. HUVECs (7×10^4 cells/mL) In EC basal medium-2 (EBM-2) were seeded 250 μL per well onto the surface of the solid BD Matrigel™ in the presence of the compounds to be tested. The cells were incubated for 22 h at […] in a 5% CO2 incubator. Tube formation was monitored by using a Leitz Labovert (Leitz, Wetzlar, Germany) inverted microscope. Two randomly selected two microscopic fields were photographed with a digital camera (Nikon, COOLPICKS 995). The total length of tube structures in each photograph was measured using ImageJ™ free software (http://rsb.info.nih.gov/ij/) and was normalized to that of control with no test compound. Each reported value represents the average of total six photographs from three independent experiments.

HUVECs [4] = experiment: Invasion of HUVECs through Matrigel-coated filter (Matrigel Invasion Chambers); assay type: cell-based, human
Procedure: HUVECs were purchased from Cedarlane Laboratories (Burlington, Canada) and maintained in Endothelial Cell Basal Medium-2 (EBM-2) supplemented with EGM-2 growth factor mixture (Clonetics) and 2% Foetal bovine serum. The cells were cultured at 37° C. under a humidified 95%/5% (v/v) mixture of air and CO2. Invasion of endothelial cells was measured using BD BioCoatTM Growth Factor Reduced MatrigelTM Invasion Chambers (Beckton-Dickinson; […]). EBM-2 medium (500 μL each) was placed into the lower wells. HUVECs (2.5×10^4) in EBM-2 serum-free medium (500 μL) were seeded into each of the upper wells and incubated in the presence of a test compound. HUVECs were allowed to migrate for 36 h at 37° C. in an atmosphere of 95% air/5% CO2. HUVECs that remained on the upper surface of the filter were removed using a cotton swab. HUVECs that had migrated to the lower surface of the filters were fixed with methanol, stained with 0.1% crystal violet/20% (v/v) methanol and examined using a Leitz Labovert (Leitz, Wetzlar, Germany) inverted microscope after mounting on a slide. Three randomly selected microscopic fields were digitally captured using a Nikon […] 995 digital camera and the number of HUVECs in each photograph were directly counted. Each reported value represents the average and standard deviation of a total […] from two independent experiments.

[5] = Optical stability (racemization) in eye drop formulations, 10 days at 55° C., chiral HPLC; assay type: physicochemical; conditions: for % optical purity: 1.7 mg/mL, pH 6.0, starting material 99.90%
Procedure: The optical isomers of (S)-isoproterenol bitartrate and (S)-isoproterenol dipivalate hydrochloride were separated by HPLC using Shiseido chiral CD-Ph column (250×4.6 mm; 5 μm; isocratic 60:40 of 0.5 M sodium perchlorate/water and acetonitrile; flow rate, 1.0 mL/min). The elution profile was monitored by the absorption at 223 nm for isoproterenol bitartrate and 264 nm for isoproterenol dipivalate hydrochloride. The optical impurities were quantitated by the absorbance at 223 nm for isoproterenol bitartrate and 264 nm for isoproterenol dipivalate hydrochloride and by using a curve fitting software TABLECurve2D (Systat). The impurities of (R)-isoproterenol bitartrate and (R)-isoproterenol dipivalate hydrochloride were estimated as […], respectively. Thus, the racemization induced during synthesis and purification was minimal, if it occurred.
Table 2 describes the optical purities of (S)-isoproterenol and (S)-isoproterenol dipivalate after incubation in various eye drop formulations for 10 days at 55° C. and compared with those before incubation. The incubation for 10 days at 55° C. corresponds to the incubation for 167 days at 22° C.

[6] = Body weight of rats with eye drop treatment; assay type: in vivo, Sprague-Dawley rats
From the text: Prevention of diabetic retinopathy by (S)-isoproterenol […] drop was studied using a rat model. […] Animal weights were monitored every week.

[7] = Groups I vs II and III vs IV
Procedure: Two-month-old male Sprague-Dawley rats were purchased from Charles River, Canada. They were housed in the Biotechnology Research Institute (BRI)-animal facility. […] Diabetes was induced in male Sprague-Dawley rats weighing approximately 200 to 250 g by a single intraperitoneal injection of the beta-cell toxin, Streptozotocin (STZ) (Sigma, St. Louis, Mich.), at a dose of 60 mg/kg body weight in 0.1M citrate buffer pH 4.5. Non-diabetic control rats received citrate buffer only.
One week following induction of diabetes, glucose levels were determined in the blood sampled from the tail vein using a blood glucose monitoring system (Ascensia ELITE Blood Glucose Meter, Bayer Inc, Toronto, ON, Canada). Since the limit of detection of the blood glucose meter was 33 mM, any value above that has been assigned a maximum value of 35 mM. Only animals with blood glucose levels higher than 15 mM were retained in the study.
Eye drops or vehicle were administered twice a day, seven days a week, on the cornea of different groups of rats, with a minimum interval of 7 h between the two treatments. To promote weight gain and limit hyperglycemia, diabetic rats were injected sub-cutaneously with 2 IU ultralente insulin (Humulin, Eli Lilly, Toronto, ON, Canada) three times a week. Animal weights were monitored every week.

[8] = humans, cited from earlier work
[9] = 17.6% eye drop, rabbit; cited from earlier work
[10] = large intravenous dose; cited from earlier work
[11] = mouse, in vivo, iv; cited from earlier work

## CC(C)NCC(O)c1ccc(OC(=O)C(C)(C)C)c(OC(=O)C(C)(C)C)c1 (racemic) [(R,S)-isoproterenol dipivalate]
[1]
  cardiovascular responses: the same responses as those of (R,S)-isoproterenol

## CC(C)NC[C@@H](O)c1ccc(O)c(O)c1.Cl [(S)-isoproterenol hydrochloride]
[2]
  lowering of intra-ocular pressure: did not show any indication to lower intra-ocular pressure

## CC(C)NC[C@@H](O)c1ccc(O)c(O)c1 [(S)-isoproterenol]
HUVECs [3]; 95% w/w optically pure, total isoproterenol 20 μM, FIG. 3
  anti-angiogenic activity at 95% w/w optical purity: in the transition from non-antianglogenic to anti-angiogenic
HUVECs [3]; angiogenic assay condition used in FIG. 1, 1-50 μM, 22 h
  potency (inhibition of capillary tube formation): around 10 μM
HUVECs [3]; measured at 20 μM, HUVECs on Matrigel, 22 h
  Activity (anti-angiogenicity): anti-angiogenic activity
HUVECs [3]; various ratios of (S)- and (R)-isoproterenol, total 20 μM, FIG. 3
  optical purity of (S)-isoproterenol at which anti-angiogenic activity was observed: at least 97 % w/w
HUVECs [4]; 20 μM
  reduction of the invasion of HUVECs in Matrigel: 60%
HUVECs [4]; measured at 20 μM, HUVECs
  Activity (anti-invasion): Anti-invasive
[5]; 10 days at 55° C.
  conversion to the (R)-isoform: 2.55%
[5]; 10 days at 55° C., NaCl 8 mg/mL, Benzalkonium chloride 0.04 mg/mL, Tween 80 2.5 mg/mL
  % optical purity: 96.68%
[5]; 10 days at 55° C., Povidone 2 mg/mL, Benzalkonium chloride 0.04 mg/mL, D-Mannitol 54.7 mg/mL
  % optical purity: 97.90%
[5]; 10 days at 55° C., Povidone 2 mg/mL, D-Mannitol 54.7 mg/mL, Chlorobutanol 1 mg/mL, 2-hydroxypropyl cyclodextrin 10.1 mg/mL
  % optical purity: 97.56%
[5]; 10 days at 55° C., Povidone 2 mg/mL, NaCl 8 mg/mL, Benzalkonium chloride 0.04 mg/mL, 2-hydroxypropyl cyclodextrin 10.1 mg/mL
  % optical purity: 97.26%
[5]; average over the eye drop formulations
  average optical purity after incubating 10 days at 55° C.: 97.35±0.52%
[5]; extrapolated, from 99.90%
  optical purity after 655 days of storage at room temperature: 90%
[6]; diabetic rats, Group IV vs Group III
  effect on weight gain/loss: no effect
[6]; non-diabetic rats, Group II vs Group I
  effect on weight gain/loss: no effect
[7]
  effect on the blood glucose level and diabetes: does not affect
[8]; 10%, topical
  side effects of topically applied 10% solution: brief mild conjunctival hyperemia and irritation
[8]; 20% eye drop
  side effects of 20% eye drop: marked conjunctival hyperemia and mild miosis that persisted for several hours
[9]
  systemic effects (heart rate, blood pressure, hematologic or serum chemistry values, necropsy): no systemic effects
[10]
  effects on blood pressure and pulse rate: only slight and transient effects
[11]
  LD50: 113 ± 5 mg/kg

Source: patent US9351947B2, “Use of catecholamines and related compounds as anti-angiogenic agents” (National Research Council of Canada, priority 2007, dated 2016)
